Assay results: US20030153536A1, “Compounds and methods of treating transplant rejection” (priority 2001, published 2003)

What was measured:
[1] = tested on: ACI-to-Lewis rat aortic allograft; test: Rat aortic allograft model (graft arteriosclerosis); assay type: in vivo; conditions: for percent inhibition of IM ratio / percent inhibition of the % LN (luminal narrowing): day 90, vs vehicle control
Description: Compound A was evaluated for graft arteriosclerosis resulting from aortic heterotropic transplantation. This is a model of graft arteriopathy which is the major obstacle to long term success of solid organ transplantation.
Donor descending aortas from ACI rats were heterotypically transplanted into Lewis rat abdomens in end-to-end fashion with minimal ischemic time. 55 rats were assigned to five groups as follows:
(§1) Compound A was administered subcutaneously to recipient animals three days prior to the surgery and once daily for 90 days thereafter. […] Thereafter, the dose was reduced to 30 mg/kg/d for 6 days and then further reduced to 5 mg/kg/d for the remainder of the study.
On day 90, the allograft segment was removed, fixed in 10% buffered formal in and paraffin embedded. Sections were stained with von Geisson's elastic stain, and intima-to-media area (IM) ratio and percent luminal narrowing (% LN) were assessed by digital morphometry (See FIGS. 1 and 2). Blood was collected at regular intervals throughout the study and plasma evaluated for compound levels (See FIG. 3).

[2] = Tolerability in rat aortic allograft study; assay type: in vivo
Description: as §1
The group receiving the 40/30/5 mg/kg/d dose of Compound A evidenced the highest degree of inhibition despite the fact that it received only a 40 mg/kg/d dose for 13 days prior to dosing down. […] After 90 days of dosing, the trough plasma levels were 10, 18 and 28 uM for the 10,20 and 40/30/5 mg/kg/d doses, respectively.

[3] = tested on: human aortic smooth muscle cells (AoSMC); test: Smooth muscle cell proliferation inhibition (3H-thymidine incorporation); assay type: cell-based; conditions: 5% serum-stimulated AoSMC, 20 hr incubation, read-out: SMC Proliferation Inhibition (IC50)
Description: Cultured human aortic smooth muscle cells (AoSMC) were obtained from Clonetics, Inc. and were used below passage 10. Cells were seeded in 24-well plates. When cells were 80% confluent, they were made quiescent by adding media containing 0.2% serum (as compared to 5% serum in normal culture media) for 48 hours. The cells were then stimulated by 5% serum in the presence or absence of compounds dissolved in DMSO. To establish a dose curve and IC50 for each compound, multiple concentrations (20,15,10,5 μM) were used. Rapamycin (at 1 and 0.1 μM) was used as a positive control for the assay. After a 20 hr incubation with or without test compounds, ^3H-thymidine (0.5 μCi/per well) was added to the cells for 4 hours of labeling. Washed cells were then lysed in NaOH and the amount of^3H-thymidine incorporation was determined by a scintillation counter.

[4] = background statement; cited from earlier work
[5] = 20 mg and 40/30/5 mg/kg/d doses

SMILES: CC(C)(Sc1cc(C(C)(C)C)c(O)c(C(C)(C)C)c1)Sc1cc(C(C)(C)C)c(OCCCC(=O)O)c(C(C)(C)C)c1 [Compound A, 4-[4-[[1-[[3,5-bis(1,1-dimethylethyl)-4-hydroxyphenyl]thio]-1-methylethyl]thio]-2,6-bis(1,1-dimethylethyl)phenoxy]butyric acid]
- percent inhibition of IM ratio ([1]; 10 mg/kg/d subcutaneous): 11%
- percent inhibition of the % LN (luminal narrowing) ([1]; 10 mg/kg/d subcutaneous): 22%
- % LN compared to the vehicle group [1, 5]: significantly lower
- IM ratio compared to the vehicle group [1, 5]: significantly lower
- percent inhibition of IM ratio ([1]; 20 mg/kg/d subcutaneous): 28%
- percent inhibition of the % LN (luminal narrowing) ([1]; 20 mg/kg/d subcutaneous): 33%
- inhibition of aortic neointimal growth ([1]; 10, 20, 40/30/5 mg/kg/d): dose-dependent inhibition
- percent inhibition of IM ratio ([1]; 40/30/5 mg/kg/d subcutaneous): 49%
- percent inhibition of the % LN (luminal narrowing) ([1]; 40/30/5 mg/kg/d subcutaneous): 52%
- toxic side effects ([2]; 20 mg/kg/d): without grossly discemable toxic side effects
- body weight change ([2]; 40 mg/kg/d group, until dose dropped to 5 mg/kg/d): initially lost weight
- adverse findings leading to dose reduction ([2]; 40 mg/kg/d subcutaneous, 13 days): failure to gain weight and skin irritation
- tolerability of treatment ([2]; 10 and 20 mg/kg/d subcutaneous): well tolerated
- IC50 [3]: 5.5 µM

SMILES: CC(C)(Sc1cc(C(C)(C)C)c(O)c(C(C)(C)C)c1)Sc1cc(C(C)(C)C)c(OC(=O)CN)c(C(C)(C)C)c1 [Compound I]
- IC50 [3]: 8 µM

SMILES: CCOC(=O)CC[C@H](NCC(O)COc1c(C(C)(C)C)cc(SC(C)(C)Sc2cc(C(C)(C)C)c(O)c(C(C)(C)C)c2)cc1C(C)(C)C)C(=O)OCC (some centres unmarked) [E]
- IC50 [3]: 3.7 µM

SMILES: C=CC[C@@H]1/C=C(\C)C[C@H](C)C[C@H](OC)[C@H]2O[C@@](O)(C(=O)C(=O)N3CCCC[C@H]3C(=O)O[C@H](/C(C)=C/[C@@H]3CC[C@@H](O)[C@H](OC)C3)[C@H](C)[C@@H](O)CC1=O)[C@H](C)C[C@@H]2OC [FK506, tacrolimus]
- immunosuppressive activity relative to cyclosporin [4]: 10-100 times
